The results in this text go back to patent US20240269139A1, “COMPOUNDS FOR TARGETED PROTEIN DEGRADATION OF KINASES” (DANA-FARBER CANCER INSTITUTE, INC., priority 2020, published 2024).

Holding throughout (type): cell-based
Assay [1] deals with protein kinases (human kinome) (Homo sapiens, UniProt P50613). As to conditions: for logFC: CDK7 (P50613) protein abundance, degrader vs DMSO, down; for logFC CDK7: CDK7 P50613.
Assay [2] deals with protein kinases (human kinome) (Homo sapiens, UniProt Q8TDR2).
Assay [3] has as its target protein kinases (human kinome) (Homo sapiens, UniProt Q14004). Conditions: for logFC CDK13: Accession Q14004-1.
The target of assay [4] is protein kinases (human kinome) (Homo sapiens, UniProt Q9NYV4).
The target of assay [5] is protein kinases (human kinome) (Homo sapiens, UniProt Q9HBH9). As to conditions: for logFC MKNK2 (Q9HBH9-1): direction down; for logFC: MKNK2 (Q9HBH9-1).
In assay [6] the target is protein kinases (human kinome) (Homo sapiens, UniProt Q00537). Conditions: for logFC of CDK17: Accession Q00537; for logFC CDK17 (Q00537): direction of change down.
The target in assay [7] is protein kinases (human kinome) (Homo sapiens, UniProt Q00535). As to conditions: experiment wp146.
The target of assay [8] is protein kinases (human kinome) (Homo sapiens, UniProt Q14289).

Values joined by “and” are separate entries in the source; they are usually repeats but may differ in a detail not shown here. Equal values may be shown once. Read-outs that look alike come from different tables or passages of the source.

Chain of protein kinases (human kinome) (Homo sapiens, UniProt Q9NYV4) (Q9NYV4 whole entry): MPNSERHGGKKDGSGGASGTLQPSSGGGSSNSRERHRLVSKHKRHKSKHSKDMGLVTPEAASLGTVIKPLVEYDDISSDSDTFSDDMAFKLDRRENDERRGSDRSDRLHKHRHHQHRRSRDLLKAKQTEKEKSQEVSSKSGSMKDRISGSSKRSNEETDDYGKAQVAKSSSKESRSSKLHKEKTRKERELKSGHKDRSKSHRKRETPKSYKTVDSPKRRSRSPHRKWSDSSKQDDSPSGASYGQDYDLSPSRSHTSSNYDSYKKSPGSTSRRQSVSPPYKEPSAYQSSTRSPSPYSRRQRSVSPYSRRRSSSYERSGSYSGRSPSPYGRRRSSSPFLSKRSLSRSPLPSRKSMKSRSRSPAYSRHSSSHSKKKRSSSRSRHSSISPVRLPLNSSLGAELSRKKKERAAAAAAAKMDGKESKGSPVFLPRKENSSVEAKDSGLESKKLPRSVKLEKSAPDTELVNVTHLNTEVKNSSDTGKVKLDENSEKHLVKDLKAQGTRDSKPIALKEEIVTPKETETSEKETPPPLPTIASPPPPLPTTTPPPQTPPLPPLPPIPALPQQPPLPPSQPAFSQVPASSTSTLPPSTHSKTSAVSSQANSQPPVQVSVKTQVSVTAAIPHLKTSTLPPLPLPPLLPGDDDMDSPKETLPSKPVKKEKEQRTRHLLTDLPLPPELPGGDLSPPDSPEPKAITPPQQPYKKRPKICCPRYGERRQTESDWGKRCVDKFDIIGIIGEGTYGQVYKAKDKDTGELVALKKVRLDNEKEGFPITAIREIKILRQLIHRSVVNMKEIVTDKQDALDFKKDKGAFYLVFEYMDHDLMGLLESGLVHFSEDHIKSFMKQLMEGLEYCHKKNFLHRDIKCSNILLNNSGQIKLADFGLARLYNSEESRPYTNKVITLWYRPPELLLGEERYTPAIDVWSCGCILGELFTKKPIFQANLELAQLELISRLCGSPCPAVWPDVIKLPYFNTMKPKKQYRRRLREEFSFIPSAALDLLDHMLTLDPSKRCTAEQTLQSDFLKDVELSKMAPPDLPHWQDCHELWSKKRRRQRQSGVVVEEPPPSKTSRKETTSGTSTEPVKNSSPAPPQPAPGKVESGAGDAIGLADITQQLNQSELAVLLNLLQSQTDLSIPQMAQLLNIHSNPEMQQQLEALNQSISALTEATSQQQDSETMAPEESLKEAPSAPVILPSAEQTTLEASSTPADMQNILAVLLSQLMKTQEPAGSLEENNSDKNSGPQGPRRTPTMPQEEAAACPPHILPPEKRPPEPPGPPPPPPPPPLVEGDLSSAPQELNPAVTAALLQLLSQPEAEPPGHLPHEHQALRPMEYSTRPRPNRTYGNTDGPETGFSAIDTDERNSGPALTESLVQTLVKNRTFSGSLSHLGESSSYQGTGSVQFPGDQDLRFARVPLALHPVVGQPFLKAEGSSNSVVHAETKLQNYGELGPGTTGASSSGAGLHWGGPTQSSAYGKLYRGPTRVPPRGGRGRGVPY
Chain of protein kinases (human kinome) (Homo sapiens, UniProt P50613) (P50613 whole entry): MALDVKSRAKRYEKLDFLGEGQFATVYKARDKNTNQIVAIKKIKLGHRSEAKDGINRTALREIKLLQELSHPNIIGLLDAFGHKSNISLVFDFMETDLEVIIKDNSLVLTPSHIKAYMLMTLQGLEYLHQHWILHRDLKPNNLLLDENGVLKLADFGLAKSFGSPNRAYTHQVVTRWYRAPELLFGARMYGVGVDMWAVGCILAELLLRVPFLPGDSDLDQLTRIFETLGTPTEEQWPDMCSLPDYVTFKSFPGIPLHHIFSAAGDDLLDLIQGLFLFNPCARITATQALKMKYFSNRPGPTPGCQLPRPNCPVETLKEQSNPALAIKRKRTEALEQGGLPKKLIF
Chain of protein kinases (human kinome) (Homo sapiens, UniProt Q00537) (Q00537 whole entry): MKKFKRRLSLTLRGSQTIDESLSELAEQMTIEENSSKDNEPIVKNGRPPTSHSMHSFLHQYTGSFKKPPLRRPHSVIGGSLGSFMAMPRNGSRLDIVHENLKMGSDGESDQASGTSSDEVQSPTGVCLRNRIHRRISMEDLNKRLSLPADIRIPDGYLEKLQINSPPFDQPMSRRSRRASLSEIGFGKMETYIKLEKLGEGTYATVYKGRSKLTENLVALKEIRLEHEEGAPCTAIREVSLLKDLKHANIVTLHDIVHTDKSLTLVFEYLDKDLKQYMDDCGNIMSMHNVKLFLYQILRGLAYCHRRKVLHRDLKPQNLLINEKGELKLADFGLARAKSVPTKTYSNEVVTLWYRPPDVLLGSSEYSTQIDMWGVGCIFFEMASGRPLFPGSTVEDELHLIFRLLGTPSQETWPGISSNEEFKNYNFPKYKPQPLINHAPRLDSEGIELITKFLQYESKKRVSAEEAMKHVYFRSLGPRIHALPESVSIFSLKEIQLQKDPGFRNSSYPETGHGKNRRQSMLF
Chain of protein kinases (human kinome) (Homo sapiens, UniProt Q9HBH9) (Q9HBH9 whole entry): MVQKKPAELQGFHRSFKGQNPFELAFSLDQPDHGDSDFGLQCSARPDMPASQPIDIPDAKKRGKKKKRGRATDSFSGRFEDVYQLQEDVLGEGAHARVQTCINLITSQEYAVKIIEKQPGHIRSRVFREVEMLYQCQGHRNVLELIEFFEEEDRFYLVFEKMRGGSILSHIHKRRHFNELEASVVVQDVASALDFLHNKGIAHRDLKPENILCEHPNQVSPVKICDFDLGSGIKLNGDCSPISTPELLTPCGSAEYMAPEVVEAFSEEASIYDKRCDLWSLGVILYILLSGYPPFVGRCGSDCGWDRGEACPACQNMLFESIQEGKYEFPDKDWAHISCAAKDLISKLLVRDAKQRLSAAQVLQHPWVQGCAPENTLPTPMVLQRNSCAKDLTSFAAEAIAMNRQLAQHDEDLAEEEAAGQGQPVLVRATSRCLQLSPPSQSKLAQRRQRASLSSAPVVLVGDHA
Chain of protein kinases (human kinome) (Homo sapiens, UniProt Q8TDR2) (Q8TDR2 whole entry): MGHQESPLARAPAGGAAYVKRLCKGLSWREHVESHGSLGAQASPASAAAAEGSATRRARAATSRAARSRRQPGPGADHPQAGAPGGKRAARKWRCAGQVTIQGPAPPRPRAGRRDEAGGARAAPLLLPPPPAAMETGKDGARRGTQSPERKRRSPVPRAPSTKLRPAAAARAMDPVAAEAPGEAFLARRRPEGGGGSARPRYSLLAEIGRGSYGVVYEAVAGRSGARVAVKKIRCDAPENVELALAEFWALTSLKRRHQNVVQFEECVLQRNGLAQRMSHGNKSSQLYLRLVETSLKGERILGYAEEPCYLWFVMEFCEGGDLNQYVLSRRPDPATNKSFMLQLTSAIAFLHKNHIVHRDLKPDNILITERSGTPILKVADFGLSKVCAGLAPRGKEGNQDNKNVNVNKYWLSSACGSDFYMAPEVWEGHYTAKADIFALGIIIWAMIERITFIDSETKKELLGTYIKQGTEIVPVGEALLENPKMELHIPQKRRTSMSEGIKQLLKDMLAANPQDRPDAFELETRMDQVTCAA
Chain of protein kinases (human kinome) (Homo sapiens, UniProt Q14004) (Q14004 whole entry): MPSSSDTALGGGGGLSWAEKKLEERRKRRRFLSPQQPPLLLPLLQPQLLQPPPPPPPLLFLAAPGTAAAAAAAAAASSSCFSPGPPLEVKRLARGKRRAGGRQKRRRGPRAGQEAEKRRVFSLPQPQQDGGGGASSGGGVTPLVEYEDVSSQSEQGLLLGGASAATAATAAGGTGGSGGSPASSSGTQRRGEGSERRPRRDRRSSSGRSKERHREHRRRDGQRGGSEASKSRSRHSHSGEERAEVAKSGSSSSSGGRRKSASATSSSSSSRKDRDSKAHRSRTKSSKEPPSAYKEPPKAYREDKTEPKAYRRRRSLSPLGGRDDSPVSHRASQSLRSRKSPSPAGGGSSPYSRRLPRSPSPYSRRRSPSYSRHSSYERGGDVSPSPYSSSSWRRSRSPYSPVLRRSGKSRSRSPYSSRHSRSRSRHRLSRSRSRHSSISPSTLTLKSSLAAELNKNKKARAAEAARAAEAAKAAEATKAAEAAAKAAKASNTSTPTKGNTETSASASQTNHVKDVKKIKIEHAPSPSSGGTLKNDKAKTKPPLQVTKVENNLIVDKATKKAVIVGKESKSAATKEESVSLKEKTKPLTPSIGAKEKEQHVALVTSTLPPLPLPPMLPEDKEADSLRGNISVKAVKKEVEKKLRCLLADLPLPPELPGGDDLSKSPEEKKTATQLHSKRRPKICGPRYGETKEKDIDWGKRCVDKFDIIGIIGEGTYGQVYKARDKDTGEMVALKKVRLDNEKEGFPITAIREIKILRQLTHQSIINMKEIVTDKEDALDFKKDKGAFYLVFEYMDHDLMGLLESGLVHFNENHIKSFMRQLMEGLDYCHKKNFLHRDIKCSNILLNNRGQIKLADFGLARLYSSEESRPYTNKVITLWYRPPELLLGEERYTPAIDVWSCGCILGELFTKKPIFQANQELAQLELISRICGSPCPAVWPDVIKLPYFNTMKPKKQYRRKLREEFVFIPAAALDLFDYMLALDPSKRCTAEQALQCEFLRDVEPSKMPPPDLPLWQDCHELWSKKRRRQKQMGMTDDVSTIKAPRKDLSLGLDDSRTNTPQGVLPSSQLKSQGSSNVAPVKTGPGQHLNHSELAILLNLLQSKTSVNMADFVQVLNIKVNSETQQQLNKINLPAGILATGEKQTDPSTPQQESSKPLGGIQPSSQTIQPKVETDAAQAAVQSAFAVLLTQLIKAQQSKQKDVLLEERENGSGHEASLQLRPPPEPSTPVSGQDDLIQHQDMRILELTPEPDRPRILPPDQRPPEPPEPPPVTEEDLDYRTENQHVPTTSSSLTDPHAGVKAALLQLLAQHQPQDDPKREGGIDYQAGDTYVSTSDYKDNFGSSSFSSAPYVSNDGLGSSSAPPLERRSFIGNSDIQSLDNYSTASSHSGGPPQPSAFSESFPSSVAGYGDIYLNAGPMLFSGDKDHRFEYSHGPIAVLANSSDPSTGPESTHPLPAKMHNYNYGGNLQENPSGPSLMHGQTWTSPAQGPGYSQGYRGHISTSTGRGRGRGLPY

With `Cc1ncsc1-c1ccc([C@H](C)NC(=O)[C@@H]2C[C@@H](O)CN2C(=O)[C@@H](NC(=O)CCOCCOCCN2CCN(c3ccc(Nc4ncc(Cl)c(Nc5ccccc5S(=O)(=O)C(C)C)n4)cc3)CC2)C(C)(C)C)cc1` [FMF.06.098.1], the logFC in assay [1] is −0.9016 and −1.137 and −0.9756. Moreover, the “logFC CDK7” value in assay [1] (experiment wp108) is −0.9016; in assay [1] (experiment wp114), −1.137; in assay [1] (experiment wp131), −0.9756. Moreover, the “logFC STK35” value in assay [2] (Accession Q8TDR2, experiment wp108, direction down) is given as −0.6029; in assay [2] (Accession Q8TDR2, experiment wp114, direction down), −0.5116; in assay [2] (Accession Q8TDR2, experiment wp131, direction down) it was −0.656; in assay [2] (STK35 (Q8TDR2), experiment wp108) it was −0.6029; in assay [2] (STK35 (Q8TDR2), experiment wp114), −0.5116; in assay [2] (STK35 (Q8TDR2), experiment wp131) it was −0.656. In addition, the figures for the “logFC CDK13” value in assay [3] (experiment wp108) and in assay [3] (experiment wp131) were −0.3664 and −0.4981, respectively. In addition, the “logFC CDK13 (Q14004-1)” value in assay [3] (Experiment wp108) is −0.3664; in assay [3] (experiment wp131), −0.4981. For the same compound, the “logFC CDK12” value in assay [4] (Accession Q9NYV4-1, experiment wp131) is listed as −0.5732; in assay [4] (CDK12 (Q9NYV4-1), experiment wp131) it was −0.5732.

`Cc1ncsc1-c1ccc([C@H](C)NC(=O)[C@@H]2C[C@@H](O)CN2C(=O)[C@@H](NC(=O)CCCCCN2CCN(c3ccc(Nc4ncc5scc(-c6cccc(NS(C)(=O)=O)c6)c5n4)cc3)CC2)C(C)(C)C)cc1` [RSS0680, (2S,4R)-1-((S)-3,3-Dimethyl-2-(6-(4-(4-((7-(3-(methylsulfonamido)phenyl)thieno[3,2-d]pyrimidin-2-yl)amino)phenyl)piperazin-1-yl)hexanamido)butanoyl)-4-hydroxy-N—((S)-1-(4-(4-methylthiazol-5yl)phenyl)ethyl)pyrrolidine-2-carboxamide]: the “logFC MKNK2 (Q9HBH9-1)” value in assay [5] (Experiment wp080) is reported as −0.4987; in assay [5] (Experiment wp117) it was −0.5075. Besides, the logFC in assay [5] (experiment wp080) is −0.4987; in assay [5] (experiment wp117), −0.5075; in assay [1], −1.017 and −1.219. Moreover, the “logFC CDK7” value in assay [1] (experiment wp080) was −1.017; in assay [1] (experiment wp117) it was −1.219. Moreover, the “logFC STK35” value in assay [2] (Accession Q8TDR2, experiment wp117, direction down) is given as −0.3937; in assay [2] (STK35 (Q8TDR2), experiment wp117), −0.3937. Moreover, the “logFC of CDK17” value was −0.7875 in assay [6] (experiment wp080) and −0.7193 in assay [6] (experiment wp117). Moreover, the “logFC CDK17 (Q00537)” value is on record as −0.7875 in assay [6] (experiment wp080) and −0.7193 in assay [6] (experiment wp117).

As to `Cc1cc(Nc2ncc(Br)c(Nc3cccc(F)c3C(N)=O)n2)ccc1S(=O)(=O)NCCOCCOCCOCCOCCNc1cccc2c1C(=O)N(C1CCC(=O)NC1=O)C2=O` (centres unmarked) [TMX.02.174], the “logFC CDK5 (Q00535)” value in assay [7] and in assay [7] (direction of change down) was −3.161 in each case. The logFC in assay [1] is on record as −0.584; in assay [8] (PTK2B (Q14289-1) protein abundance, degrader vs DMSO, down), −1.512. In addition, the “logFC CDK7” value in assay [1] (experiment wp146) is reported as −0.584. The “logFC STK35” value was −0.5631 in assay [2] (Accession Q8TDR2, experiment wp146, direction down) and −0.5631 in assay [2] (STK35 (Q8TDR2), experiment wp146). For the same compound, in assay [8] (PTK2B, accession Q14289-1, experiment wp146, direction of change down), the “logFC PTK2B” value is given as −1.512. The “logFC of CDK17” value in assay [6] (experiment wp146) is reported as −1.42. In addition, in assay [6] (experiment wp146), the “logFC CDK17 (Q00537)” value was −1.42. Further, the “logFC CDK12” value in assay [4] (Accession Q9NYV4-1, experiment wp146) is recorded as −0.8562; in assay [4] (CDK12 (Q9NYV4-1), experiment wp146), −0.8562.
